Measured values published in the NIST ThermoML archive (doi:10.1007/s10765-009-0651-x).
± gives the expanded uncertainty stated by the source.

Assays:
[1] = wn = mass fraction of the nth substance listed; conditions: 101 kPa, Liquid

Cn1cc[n+](C)c1.[Cl-] [1,3-dimethylimidazolium chloride]
Conditions | Normal melting temperature [°C]
Crystal, visual observation | 126.00 ± 4

Cn1cc[n+](C)c1.[Cl-] [1,3-dimethylimidazolium chloride] + O
mass density [kg/m3], [1]
Conditions | w2 = 0.2004 | w2 = 0.3015 | w2 = 0.4019 | w2 = 0.5001 | w2 = 0.5992 | w2 = 0.7003 | w2 = 0.8003 | w2 = 0.898
293.15 K | 1157.78 ± 1.6 | 1135.29 ± 1.4 | 1111.77 ± 1.2 | 1089.04 ± 1.1 | 1067.56 ± 0.94 | 1047.52 ± 0.81 | 1030.53 ± 0.7 | 1014.07 ± 0.59
298.15 K | 1154.79 ± 1.5 | 1132.4 ± 1.4 | 1109.03 ± 1.2 | 1087.14 ± 1.1 | 1065.77 ± 0.93 | 1045.81 ± 0.8 | 1027.98 ± 0.68 | 1012.2 ± 0.58
303.15 K | 1152.15 ± 1.5 | 1129.93 ± 1.4 | 1106.69 ± 1.2 | 1084.55 ± 1.1 | 1063.34 ± 0.92 | 1043.7 ± 0.78 | 1026.15 ± 0.67 | 1010.57 ± 0.57
308.15 K | 1149.31 ± 1.5 | 1127.15 ± 1.3 | 1104.22 ± 1.2 | 1082.68 ± 1.1 | 1061.63 ± 0.91 | 1041.8 ± 0.77 | 1024.53 ± 0.66 | 1008.86 ± 0.56
313.15 K | 1146.46 ± 1.5 | 1124.33 ± 1.3 | 1101.07 ± 1.2 | 1080.38 ± 1 | 1059.44 ± 0.89 | 1039.52 ± 0.76 | 1022.66 ± 0.65 | 1007.2 ± 0.55
318.15 K | 1143.59 ± 1.5 | 1121.85 ± 1.3 | 1098.34 ± 1.1 | 1078.58 ± 1 | 1057.08 ± 0.88 | 1037.12 ± 0.74 | 1021.05 ± 0.64 | 1005.65 ± 0.54

CC#N [acetonitrile]
Conditions | mass density [kg/m3]
308.1 K, 101.33 kPa, Liquid, Vibrating tube method | 765.98 ± 4.2
